According to publication PMC5698469, “Carrageenan catabolism is encoded by a complex regulon in marine heterotrophic bacteria” (Nature Communications, 2017):
Counter-ions that a name gives are not always drawn.

Key:
[1] = target: 3,6-anhydro-D-galactonate cycloisomerase DauB (ZGAL_3156) (Zobellia galactanivorans); experiment: crystal structure; hanging drop vapor diffusion; 0.2 M tri potassium citrate, 20% PEG 3350, 25 mg/mL ZGAL_3156; data at 100 K
[2] = target: 3,6-anhydro-D-galactonate cycloisomerase DauB (ZGAL_3156) (Zobellia galactanivorans); experiment: SEC; size-exclusion column analysis of ZGAL_3156 in solution (Supplementary Fig. 9)
[3] = target: T1, ZGAL_3152 (DagB, GH129-like) (Zobellia galactanivorans, UniProt G0L004); experiment: FACE and MALDI-TOF-MS; assay type: biochemical; settings: 0.5% hexasaccharide fraction, 150 mM NaCl, 3.75 mM CaCl2, 100 mM HEPES pH 7.5, room temperature overnight
T1 construct: gene zobellia_3152; recombinant, E. coli BL21(DE3), pFO4, IMAC purified; homodimer, residues Pro35-Asp693 described in structure

[4] = target: α-1,3-(3,6-anhydro)-D-galactosidase DagB (ZGAL_3152, GH129-like) (Zobellia galactanivorans); experiment: crystal structure; hanging drop vapor diffusion; 0.14 M Na/K-tartrate, 12% PEG 3350, 9 mg/mL ZGAL_3152; data at 100 K
ZGAL_3145 (CgsA, S1_19) = target: T2, ZGAL_3145 (CgsA, S1_19) (Zobellia galactanivorans, UniProt G0L000); experiment: sulfatase activity on artificial substrate; assay type: biochemical
T2 construct: gene zobellia_3145
T2 sequence (G0L000 44-511): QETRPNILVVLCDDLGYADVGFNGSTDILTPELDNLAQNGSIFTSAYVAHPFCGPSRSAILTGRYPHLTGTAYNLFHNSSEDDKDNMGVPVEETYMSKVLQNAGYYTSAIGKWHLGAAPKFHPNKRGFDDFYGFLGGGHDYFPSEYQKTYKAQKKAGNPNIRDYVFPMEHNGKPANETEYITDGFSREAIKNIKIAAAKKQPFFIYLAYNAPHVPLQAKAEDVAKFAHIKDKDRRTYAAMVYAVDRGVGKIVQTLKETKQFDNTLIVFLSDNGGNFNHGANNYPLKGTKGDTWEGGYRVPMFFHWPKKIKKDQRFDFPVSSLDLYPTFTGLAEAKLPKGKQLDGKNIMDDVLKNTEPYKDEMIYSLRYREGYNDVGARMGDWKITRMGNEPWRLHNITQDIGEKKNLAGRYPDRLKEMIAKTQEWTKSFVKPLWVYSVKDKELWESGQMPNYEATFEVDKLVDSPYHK

ZGAL_3151 (CgsC, S1_17) = target: T3, ZGAL_3151 (CgsC, S1_17) (Zobellia galactanivorans, UniProt G0L7B6); experiment: sulfatase activity on artificial substrate; assay type: biochemical
T3 construct: gene zobellia_3151
T3 sequence (G0L7B6 40-596): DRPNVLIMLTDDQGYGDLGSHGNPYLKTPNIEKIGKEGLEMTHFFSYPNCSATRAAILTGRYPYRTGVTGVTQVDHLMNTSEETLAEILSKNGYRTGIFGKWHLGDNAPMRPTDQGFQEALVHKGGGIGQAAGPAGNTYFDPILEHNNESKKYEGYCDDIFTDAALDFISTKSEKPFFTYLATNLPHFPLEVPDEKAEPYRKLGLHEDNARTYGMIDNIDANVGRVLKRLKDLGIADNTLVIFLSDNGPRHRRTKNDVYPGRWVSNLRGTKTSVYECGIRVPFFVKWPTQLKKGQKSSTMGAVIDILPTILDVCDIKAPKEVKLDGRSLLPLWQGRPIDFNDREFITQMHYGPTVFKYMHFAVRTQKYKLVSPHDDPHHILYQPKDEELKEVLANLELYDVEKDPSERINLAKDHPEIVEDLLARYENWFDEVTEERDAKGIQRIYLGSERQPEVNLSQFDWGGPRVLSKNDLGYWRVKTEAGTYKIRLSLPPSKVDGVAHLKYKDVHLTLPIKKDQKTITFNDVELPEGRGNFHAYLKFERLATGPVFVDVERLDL

ZGAL_3146 (CgsB1, S1_7) = target: T4, ZGAL_3146 (CgsB1, S1_7) (Zobellia galactanivorans, UniProt G0L7B4); experiment: sulfatase activity on artificial substrate; assay type: biochemical
T4 construct: gene idsA3
T4 sequence (G0L7B4 19-544): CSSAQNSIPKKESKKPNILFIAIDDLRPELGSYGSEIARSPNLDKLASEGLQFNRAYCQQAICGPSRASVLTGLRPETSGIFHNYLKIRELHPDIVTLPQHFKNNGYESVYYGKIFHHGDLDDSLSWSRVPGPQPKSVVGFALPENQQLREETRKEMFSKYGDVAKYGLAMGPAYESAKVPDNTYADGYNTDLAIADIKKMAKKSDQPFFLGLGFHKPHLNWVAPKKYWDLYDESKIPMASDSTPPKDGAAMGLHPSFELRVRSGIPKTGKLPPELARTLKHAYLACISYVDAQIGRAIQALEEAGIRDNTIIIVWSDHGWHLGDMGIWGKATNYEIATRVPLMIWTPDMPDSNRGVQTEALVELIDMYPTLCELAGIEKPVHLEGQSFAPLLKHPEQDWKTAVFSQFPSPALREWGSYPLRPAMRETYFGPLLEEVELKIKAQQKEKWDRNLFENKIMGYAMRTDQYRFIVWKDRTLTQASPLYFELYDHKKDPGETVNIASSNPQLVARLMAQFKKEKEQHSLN

[5] = target: T5, ZGAL_3147 (DagA1, GH127-1) (Zobellia galactanivorans, UniProt G0L001); experiment: FACE and MALDI MS, E. coli soluble lysate; assay type: biochemical; settings: 0.5% hexasaccharide fraction, 150 mM NaCl, 3.75 mM CaCl2, 100 mM HEPES pH 7.5, room temperature overnight; vector-only lysate as control
T5 construct: gene zobellia_3147; recombinant, soluble lysate of E. coli BL21(DE3), pFO4
T5 sequence (G0L001 20-681): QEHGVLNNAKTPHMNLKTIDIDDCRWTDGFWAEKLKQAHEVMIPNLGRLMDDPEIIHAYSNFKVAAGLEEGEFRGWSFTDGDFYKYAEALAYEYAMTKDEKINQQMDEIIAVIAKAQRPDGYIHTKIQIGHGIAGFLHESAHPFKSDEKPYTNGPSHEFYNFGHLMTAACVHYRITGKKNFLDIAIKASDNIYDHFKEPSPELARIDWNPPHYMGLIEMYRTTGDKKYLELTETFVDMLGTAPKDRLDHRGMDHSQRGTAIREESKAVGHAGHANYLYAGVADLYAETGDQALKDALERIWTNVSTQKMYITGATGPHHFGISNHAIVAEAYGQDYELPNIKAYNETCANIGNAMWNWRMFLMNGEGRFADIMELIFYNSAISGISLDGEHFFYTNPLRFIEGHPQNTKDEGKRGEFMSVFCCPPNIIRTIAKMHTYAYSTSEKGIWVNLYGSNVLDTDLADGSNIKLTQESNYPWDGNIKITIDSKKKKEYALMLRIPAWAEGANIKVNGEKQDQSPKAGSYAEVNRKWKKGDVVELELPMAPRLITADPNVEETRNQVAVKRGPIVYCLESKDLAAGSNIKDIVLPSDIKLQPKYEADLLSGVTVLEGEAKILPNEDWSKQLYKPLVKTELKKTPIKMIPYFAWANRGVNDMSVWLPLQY

[6] = target: T6, ZGAL_3148 (DagA2, GH127-2) (Zobellia galactanivorans, UniProt G0L7B5); experiment: FACE and MALDI MS, E. coli soluble lysate; assay type: biochemical; settings: 0.5% hexasaccharide fraction, 150 mM NaCl, 3.75 mM CaCl2, 100 mM HEPES pH 7.5, room temperature overnight
T6 construct: gene zobellia_3148; recombinant, soluble lysate of E. coli BL21(DE3), pFO4
T6 sequence (G0L7B5 1-656): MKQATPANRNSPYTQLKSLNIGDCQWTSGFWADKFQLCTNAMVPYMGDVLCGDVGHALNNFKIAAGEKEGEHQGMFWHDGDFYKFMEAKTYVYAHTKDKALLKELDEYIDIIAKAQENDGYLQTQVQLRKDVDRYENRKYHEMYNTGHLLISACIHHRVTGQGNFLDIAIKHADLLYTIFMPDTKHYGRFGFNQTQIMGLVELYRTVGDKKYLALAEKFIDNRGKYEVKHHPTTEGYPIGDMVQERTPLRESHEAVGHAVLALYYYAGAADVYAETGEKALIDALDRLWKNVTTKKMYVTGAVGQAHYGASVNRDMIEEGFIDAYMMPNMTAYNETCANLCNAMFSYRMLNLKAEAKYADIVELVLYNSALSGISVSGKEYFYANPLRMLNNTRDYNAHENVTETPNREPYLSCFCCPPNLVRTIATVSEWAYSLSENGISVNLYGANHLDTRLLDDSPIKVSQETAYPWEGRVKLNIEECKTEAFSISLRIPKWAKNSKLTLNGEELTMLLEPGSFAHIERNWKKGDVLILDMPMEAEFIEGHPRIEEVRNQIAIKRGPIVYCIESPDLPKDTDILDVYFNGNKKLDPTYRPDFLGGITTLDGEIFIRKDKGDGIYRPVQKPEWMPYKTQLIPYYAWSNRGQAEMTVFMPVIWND

T1 sequence (G0L004 entry or part of it): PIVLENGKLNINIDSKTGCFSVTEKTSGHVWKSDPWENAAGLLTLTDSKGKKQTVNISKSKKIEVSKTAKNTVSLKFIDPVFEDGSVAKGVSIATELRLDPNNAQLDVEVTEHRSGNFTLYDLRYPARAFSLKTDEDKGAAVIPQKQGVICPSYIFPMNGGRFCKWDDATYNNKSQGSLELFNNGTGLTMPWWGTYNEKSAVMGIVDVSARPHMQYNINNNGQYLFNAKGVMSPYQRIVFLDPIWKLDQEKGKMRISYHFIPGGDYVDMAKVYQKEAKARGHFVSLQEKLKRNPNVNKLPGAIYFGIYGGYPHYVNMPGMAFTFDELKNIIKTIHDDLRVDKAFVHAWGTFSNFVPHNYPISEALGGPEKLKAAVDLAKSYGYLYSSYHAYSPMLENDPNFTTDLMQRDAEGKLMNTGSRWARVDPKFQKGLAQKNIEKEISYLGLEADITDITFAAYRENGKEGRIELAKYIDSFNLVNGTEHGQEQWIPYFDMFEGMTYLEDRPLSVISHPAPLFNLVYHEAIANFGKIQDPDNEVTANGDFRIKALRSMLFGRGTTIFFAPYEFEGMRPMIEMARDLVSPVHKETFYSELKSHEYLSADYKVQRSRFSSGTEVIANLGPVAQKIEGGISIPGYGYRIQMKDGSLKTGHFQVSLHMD

3,6-anhydro-D-galactonate cycloisomerase DauB (ZGAL_3156) (enzyme)
stoichiometry N [1]: 8 | stoichiometry N [2]: 8

O=C[C@H](O)[C@H]1OC[C@@H](O)[C@@H]1O [D-AnG]
FACE and MALDI-TOF-MS [3]: indicated the release of the terminal neutral monosaccharide D-AnG and of a pentasaccharide

α-1,3-(3,6-anhydro)-D-galactosidase DagB (ZGAL_3152, GH129-like) (enzyme)
stoichiometry N [4]: 2

Cc1cc(=O)oc2cc(OS(=O)(=O)O)ccc12 [4-methylumbelliferyl sulfate]
sulfatase activity on artificial substrate (ZGAL_3145 (CgsA, S1_19)): shown to be active sulfatases using the artificial substrate 4-methylumbelliferyl sulfate | sulfatase activity on artificial substrate (ZGAL_3151 (CgsC, S1_17)): shown to be active sulfatases using the artificial substrate 4-methylumbelliferyl sulfate | sulfatase activity on artificial substrate (ZGAL_3146 (CgsB1, S1_7)): shown to be active sulfatases using the artificial substrate 4-methylumbelliferyl sulfate

O=S(=O)(O)O[C@@H]1[C@H](O[C@H]2O[C@@H]3CO[C@H]([C@H]2O)[C@H]3O[C@@H]2O[C@H](CO)[C@H](O)[C@H](O[C@H]3O[C@@H]4CO[C@@H]([C@H]4O)[C@H]3O)[C@H]2O)[C@@H](O)[C@H](O[C@@H]2[C@@H]3OC[C@H]2O[C@H](O[C@H]2[C@@H](OS(=O)(=O)O)[C@@H](CO)OC(O)[C@@H]2O)[C@@H]3O)O[C@@H]1CO (stereo partly drawn) [DP6 beta-kappa-kappa oligosaccharide]
FACE and MALDI MS, E. coli soluble lysate [5]: All the GHs showed activity on the furcellaran hexasaccharide, as demonstrated using FACE | FACE and MALDI MS, E. coli soluble lysate [6]: All the GHs showed activity on the furcellaran hexasaccharide, as demonstrated using FACE
